Test results taken from ChEMBL document CHEMBL4387747, “Discovery of naphthacemycins as a novel class of PARP1 inhibitors” (Bioorg Med Chem Lett, 2019).
Active and inactive are the calls of the source. The calls are words filed in the database; no cut-off is given here.

Tests used:
[1] = target: T1, Poly [ADP-ribose] polymerase 1 (Homo sapiens, UniProt P09874); assay: Inhibition of recombinant human full length C-terminal His-tagged PARP1 expressed in Sf9 insect cells preincubated for 15 mins followed by NAD+ addition and measured after 40 mins by fluorescence based assay
MDA-MB-231 = assay: cells; conditions: Homo sapiens
MDA-MB-436 [2] = tested on: MDA-MB-436
MCF7 = assay: cells; conditions: Homo sapiens
[3] = target: T1, Poly [ADP-ribose] polymerase 1; assay: Inhibition of PARP1 in human MDA-MB-231 cells assessed as increase in gammaH2AX expression level incubated for 24 hrs by Western blot analysis; type: cell-based
[4] = target: T1, Poly [ADP-ribose] polymerase 1; assay: Inhibition of PARP1 in MMS treated human MDA-MB-436 cells harboring BRCA1 mutation assessed as increase in PARP1 trapping in chromatin-bound fraction incubated for 4 hrs by Western blot analysis; type: cell-based
[5] = target: T1, Poly [ADP-ribose] polymerase 1; assay: Inhibition of PARP1 in human MDA-MB-436 cells harboring BRCA1 mutation assessed as decrease in PAR expression level incubated for 3 hrs by Western blot analysis; type: cell-based
[6] = target: T1, Poly [ADP-ribose] polymerase 1; assay: Inhibition of PARP1 in human MDA-MB-231 cells assessed as decrease in PAR expression level incubated for 3 hrs by Western blot analysis; type: cell-based
[7] = target: T1, Poly [ADP-ribose] polymerase 1; assay: Inhibition of PARP1 in human MDA-MB-436 cells harboring BRCA1 mutation assessed as increase in gammaH2AX expression level incubated for 24 hrs by Western blot analysis; type: cell-based
MDA-MB-436 [8] = assay: Effect on whole cell PARP1 protein levels in MMS treated human MDA-MB-436 cells harboring BRCA1 mutation at 5 to 45 uM incubated for 4 hrs by Western blot analysis; type: functional, cell-based

T1 sequence (P09874 whole entry): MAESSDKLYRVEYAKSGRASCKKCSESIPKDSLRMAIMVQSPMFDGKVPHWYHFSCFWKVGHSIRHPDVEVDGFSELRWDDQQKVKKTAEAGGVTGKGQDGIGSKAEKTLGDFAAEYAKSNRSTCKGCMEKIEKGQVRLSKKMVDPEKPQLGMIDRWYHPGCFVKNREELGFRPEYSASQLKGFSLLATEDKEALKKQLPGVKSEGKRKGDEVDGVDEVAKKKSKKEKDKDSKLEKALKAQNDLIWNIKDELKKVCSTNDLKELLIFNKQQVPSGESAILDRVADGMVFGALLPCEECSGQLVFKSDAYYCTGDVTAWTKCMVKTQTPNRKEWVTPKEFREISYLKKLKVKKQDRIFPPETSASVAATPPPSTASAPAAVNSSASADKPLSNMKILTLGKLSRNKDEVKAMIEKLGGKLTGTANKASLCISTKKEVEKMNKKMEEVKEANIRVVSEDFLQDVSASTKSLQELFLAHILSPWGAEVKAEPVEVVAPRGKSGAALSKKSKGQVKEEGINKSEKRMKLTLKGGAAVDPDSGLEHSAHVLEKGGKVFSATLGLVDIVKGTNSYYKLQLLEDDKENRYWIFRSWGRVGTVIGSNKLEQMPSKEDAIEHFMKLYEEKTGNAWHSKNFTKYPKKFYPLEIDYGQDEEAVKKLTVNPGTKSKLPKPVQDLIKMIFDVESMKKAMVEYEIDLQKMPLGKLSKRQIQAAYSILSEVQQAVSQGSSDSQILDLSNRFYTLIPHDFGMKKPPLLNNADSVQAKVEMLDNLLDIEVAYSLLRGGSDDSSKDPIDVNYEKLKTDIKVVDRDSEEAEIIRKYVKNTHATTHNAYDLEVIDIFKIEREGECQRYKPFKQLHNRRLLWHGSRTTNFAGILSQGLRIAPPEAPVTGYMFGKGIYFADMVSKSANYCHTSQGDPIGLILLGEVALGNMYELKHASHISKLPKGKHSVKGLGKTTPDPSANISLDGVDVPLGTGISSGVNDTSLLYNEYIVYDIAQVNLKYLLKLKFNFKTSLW

| IC50 [1] [µM] | IC50 (MDA-MB-231) [µM] | IC50 (MDA-MB-436 [2]) [µM] | IC50 (MCF7) [µM] | inhibition [3] | inhibition [4] | inhibition [5] | inhibition [6] | inhibition [7] | SMILES | Activity (MDA-MB-436 [8]) |
| --- | --- | --- | --- | --- | --- | --- | --- | --- | --- | --- |
| 15.4 | > 40 | 20.2 | > 40 |  |  |  |  |  | COc1cc(O)cc(C)c1-c1cc(O)cc2cc3c(c(O)c12)C(=O)c1c(cc(O)c(Cl)c1O)C3(C)C |  |
| 1.82 | > 40 | 4.95 | 28.8 |  |  |  |  |  | COc1c(Cl)c(O)c(Cl)c(C)c1-c1cc(O)c(Cl)c2cc3c(c(O)c12)C(=O)c1c(O)c(Cl)c(O)c(Cl)c1C3(C)C |  |
| 6.56 | > 40 | 8.61 | > 40 |  |  |  |  |  | COc1cc(O)c(Cl)c(C)c1-c1cc(O)c(Cl)c2cc3c(c(O)c12)C(=O)c1c(cc(O)c(Cl)c1O)C3(C)C |  |
| 0.95 | > 40 | 3.82 | > 40 | Dose-dependent effect | Dose-dependent effect | Dose-dependent effect | Dose-dependent effect | Dose-dependent effect | COc1cc(O)c(Cl)c(C)c1-c1cc(O)cc2cc3c(c(O)c12)C(=O)c1c(O)c(Cl)c(O)c(Cl)c1C3(C)C | inactive |
| 5.88 | > 40 | 9.27 | > 40 |  |  |  |  |  | COc1cc(O)c(Cl)c(C)c1-c1cc(O)c(Cl)c2cc3c(c(O)c12)C(=O)c1c(O)c(Cl)c(O)c(Cl)c1C3(C)C |  |

Further lines, the compound ahead of its results:

| SMILES | IC50 [1] [µM] | IC50 (MDA-MB-231) [µM] | IC50 (MDA-MB-436 [2]) [µM] | IC50 (MCF7) [µM] | inhibition [3] | inhibition [4] | inhibition [5] | inhibition [6] | inhibition [7] | Activity (MDA-MB-436 [8]) |
| --- | --- | --- | --- | --- | --- | --- | --- | --- | --- | --- |
| COc1cc(O)c(Cl)c(C)c1-c1cc(O)cc2cc3c(c(O)c12)C(=O)c1c(O)cc(O)cc1C3(C)C | 4.86 | > 40 | 10.5 | > 40 |  |  |  |  |  |  |
| COc1cc(O)c(Cl)c(C)c1-c1cc(O)cc2cc3c(c(O)c12)C(=O)c1c(cc(O)c(Cl)c1O)C3(C)C | 8.84 | 18.8 | 9.2 | 16.5 |  |  |  |  |  |  |
| COc1cc(O)c(Cl)c(C)c1-c1cc(O)c(Br)c2cc3c(c(O)c12)C(=O)c1c(O)cc(O)cc1C3(C)C | 4.59 | > 40 | 12.9 | > 40 |  |  |  |  |  |  |
| O=C(c1cc(Cc2n[nH]c(=O)c3ccccc23)ccc1F)N1CCN(C(=O)C2CC2)CC1 [OLAPARIB] |  | > 40 | 0.22 | > 40 |  |  |  |  |  |  |
